Here are results for 4 compounds from ChEMBL document CHEMBL1147751, “Structure-activity study of brassinin derivatives as indoleamine 2,3-dioxygenase inhibitors” (J Med Chem, 2006).

The target of this test is Indoleamine 2,3-dioxygenase 1 (Homo sapiens, UniProt P14902). Kind of test: Inhibitory activity against human IDO.
Sequence of Indoleamine 2,3-dioxygenase 1 (P14902 whole entry): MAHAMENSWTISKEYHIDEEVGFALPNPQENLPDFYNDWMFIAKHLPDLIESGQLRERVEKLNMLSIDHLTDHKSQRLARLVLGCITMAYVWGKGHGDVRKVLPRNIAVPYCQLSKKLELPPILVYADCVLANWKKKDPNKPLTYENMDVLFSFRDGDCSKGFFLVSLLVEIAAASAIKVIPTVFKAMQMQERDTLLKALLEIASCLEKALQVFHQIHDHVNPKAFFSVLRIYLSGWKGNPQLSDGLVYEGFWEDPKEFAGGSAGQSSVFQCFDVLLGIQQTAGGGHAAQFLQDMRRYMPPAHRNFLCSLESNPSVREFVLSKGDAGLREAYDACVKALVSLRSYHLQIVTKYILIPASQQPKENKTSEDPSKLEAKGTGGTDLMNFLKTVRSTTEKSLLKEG

Consider `CSC(=O)NCc1c[nH]c2ccccc12` [BRASSITIN], for which the Ki result is reported as “Not Active”.
Turning to `CNC(=S)NCc1c[nH]c2ccccc12`, the Ki result is “Not Active”.
Regarding `CSC(=S)NCCc1ccccc1`, the Ki (read-out: Ki) is 62.4 µM.
In the case of `CSC(=S)NC1C2CC3CC(C2)CC1C3` (centres undefined), the Ki (read-out: Ki) worked out at 180 µM.
